For experiment [1], the species on record is Mus musculus. The experiment can be described thus: Activity against TPA-induced epidermal hyperplasia in mice, and epidermal thickness value was reported. It is filed as functional. Also noted: unit not given here.
The species named for experiment [2] is Mus musculus. The experiment in a line: Activity against TPA-induced epidermal hyperplasia in mice, and percent decrease in TPA-induced hyperplasia was reported. It is filed as functional.
Experiment [3] has as its target Disintegrin and metalloproteinase domain-containing protein 17 (Homo sapiens, UniProt P78536). The experiment can be described thus: Inhibition of heparin-binding epidermal growth factor (HB-EGF) shedding. The experiment is classed as functional.
Experiment [4] concerns the target Matrix metalloproteinase-9 (Homo sapiens, UniProt P14780). The experiment can be described thus: Inhibition of Matrix metalloprotease-9 (MMP-9).
For another experiment, the species on record is Homo sapiens. The experiment in a line: Stability in human plasma and percentage of compound remained after 60 minutes was reported. The experiment is classed as functional, cell-free.
Another experiment concerns the target Stromelysin-1 (Homo sapiens, UniProt P08254). The experiment in a line: Inhibition of Matrix metalloprotease-3 (MMP-3).
A further experiment deals with T1, Interstitial collagenase (Homo sapiens, UniProt P03956).
T1 sequence (P03956 whole entry): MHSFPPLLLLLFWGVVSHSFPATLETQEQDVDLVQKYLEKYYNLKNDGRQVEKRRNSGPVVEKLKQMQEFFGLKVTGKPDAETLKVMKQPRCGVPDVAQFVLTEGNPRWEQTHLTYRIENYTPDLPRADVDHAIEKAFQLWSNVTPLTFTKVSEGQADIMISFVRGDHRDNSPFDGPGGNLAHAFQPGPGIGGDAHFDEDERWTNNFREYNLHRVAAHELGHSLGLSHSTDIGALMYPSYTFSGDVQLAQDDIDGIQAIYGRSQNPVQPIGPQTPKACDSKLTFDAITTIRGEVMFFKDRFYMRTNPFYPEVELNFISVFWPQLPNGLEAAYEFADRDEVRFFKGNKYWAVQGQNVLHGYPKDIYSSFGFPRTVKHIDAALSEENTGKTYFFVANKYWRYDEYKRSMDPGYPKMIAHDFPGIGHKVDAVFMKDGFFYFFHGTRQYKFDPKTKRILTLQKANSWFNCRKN
The experiment in a line: Inhibition of Matrix metalloprotease-1 (MMP-1).

The target in a further experiment is T2, Amphiregulin (Homo sapiens, UniProt P15514).
T2 sequence (P15514 whole entry): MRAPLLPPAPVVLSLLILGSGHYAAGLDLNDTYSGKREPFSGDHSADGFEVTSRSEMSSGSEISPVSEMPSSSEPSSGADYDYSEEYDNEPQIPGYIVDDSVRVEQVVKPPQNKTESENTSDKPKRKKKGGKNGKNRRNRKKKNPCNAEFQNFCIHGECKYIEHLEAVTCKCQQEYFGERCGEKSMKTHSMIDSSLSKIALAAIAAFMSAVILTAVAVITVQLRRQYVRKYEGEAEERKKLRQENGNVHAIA
The experiment in a line: In vitro amphiregulin shedding inhibition. It is filed as functional.

The text below walks through data of ChEMBL document CHEMBL1135982, “New strategy for antedrug application: development of metalloproteinase inhibitors as antipsoriatic drugs” (J Med Chem, 2002).

Sequence of Stromelysin-1 (P08254 whole entry): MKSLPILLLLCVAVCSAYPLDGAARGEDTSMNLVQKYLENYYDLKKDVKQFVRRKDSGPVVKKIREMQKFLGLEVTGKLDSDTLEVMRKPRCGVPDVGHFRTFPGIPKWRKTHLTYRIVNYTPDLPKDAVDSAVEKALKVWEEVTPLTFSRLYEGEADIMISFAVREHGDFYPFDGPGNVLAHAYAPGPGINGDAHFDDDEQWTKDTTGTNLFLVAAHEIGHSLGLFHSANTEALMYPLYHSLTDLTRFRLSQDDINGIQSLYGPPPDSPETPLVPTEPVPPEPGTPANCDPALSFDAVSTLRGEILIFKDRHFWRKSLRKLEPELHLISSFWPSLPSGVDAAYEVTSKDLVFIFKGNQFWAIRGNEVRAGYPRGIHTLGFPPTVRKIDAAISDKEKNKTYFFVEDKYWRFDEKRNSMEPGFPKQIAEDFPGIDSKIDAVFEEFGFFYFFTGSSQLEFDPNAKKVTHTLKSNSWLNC
Sequence of Matrix metalloproteinase-9 (P14780 whole entry): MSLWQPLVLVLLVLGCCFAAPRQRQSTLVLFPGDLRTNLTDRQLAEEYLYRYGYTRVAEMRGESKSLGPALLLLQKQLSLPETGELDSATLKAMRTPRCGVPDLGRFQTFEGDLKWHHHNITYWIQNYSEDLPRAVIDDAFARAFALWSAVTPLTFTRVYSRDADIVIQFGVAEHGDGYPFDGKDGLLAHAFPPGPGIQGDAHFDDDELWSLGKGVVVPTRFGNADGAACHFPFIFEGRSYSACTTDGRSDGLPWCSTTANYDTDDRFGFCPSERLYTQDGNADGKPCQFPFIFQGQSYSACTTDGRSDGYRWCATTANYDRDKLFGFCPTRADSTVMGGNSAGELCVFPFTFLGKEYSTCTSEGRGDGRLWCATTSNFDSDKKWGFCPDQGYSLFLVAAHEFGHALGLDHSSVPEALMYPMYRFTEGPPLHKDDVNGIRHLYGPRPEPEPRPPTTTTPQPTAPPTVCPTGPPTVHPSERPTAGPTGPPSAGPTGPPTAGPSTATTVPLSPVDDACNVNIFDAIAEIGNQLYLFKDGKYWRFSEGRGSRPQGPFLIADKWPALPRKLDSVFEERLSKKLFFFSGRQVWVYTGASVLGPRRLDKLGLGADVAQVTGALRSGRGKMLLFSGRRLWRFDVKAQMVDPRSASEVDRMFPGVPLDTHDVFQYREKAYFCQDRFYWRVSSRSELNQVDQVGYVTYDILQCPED
Sequence of Disintegrin and metalloproteinase domain-containing protein 17 (P78536 whole entry, the tested form may be a part): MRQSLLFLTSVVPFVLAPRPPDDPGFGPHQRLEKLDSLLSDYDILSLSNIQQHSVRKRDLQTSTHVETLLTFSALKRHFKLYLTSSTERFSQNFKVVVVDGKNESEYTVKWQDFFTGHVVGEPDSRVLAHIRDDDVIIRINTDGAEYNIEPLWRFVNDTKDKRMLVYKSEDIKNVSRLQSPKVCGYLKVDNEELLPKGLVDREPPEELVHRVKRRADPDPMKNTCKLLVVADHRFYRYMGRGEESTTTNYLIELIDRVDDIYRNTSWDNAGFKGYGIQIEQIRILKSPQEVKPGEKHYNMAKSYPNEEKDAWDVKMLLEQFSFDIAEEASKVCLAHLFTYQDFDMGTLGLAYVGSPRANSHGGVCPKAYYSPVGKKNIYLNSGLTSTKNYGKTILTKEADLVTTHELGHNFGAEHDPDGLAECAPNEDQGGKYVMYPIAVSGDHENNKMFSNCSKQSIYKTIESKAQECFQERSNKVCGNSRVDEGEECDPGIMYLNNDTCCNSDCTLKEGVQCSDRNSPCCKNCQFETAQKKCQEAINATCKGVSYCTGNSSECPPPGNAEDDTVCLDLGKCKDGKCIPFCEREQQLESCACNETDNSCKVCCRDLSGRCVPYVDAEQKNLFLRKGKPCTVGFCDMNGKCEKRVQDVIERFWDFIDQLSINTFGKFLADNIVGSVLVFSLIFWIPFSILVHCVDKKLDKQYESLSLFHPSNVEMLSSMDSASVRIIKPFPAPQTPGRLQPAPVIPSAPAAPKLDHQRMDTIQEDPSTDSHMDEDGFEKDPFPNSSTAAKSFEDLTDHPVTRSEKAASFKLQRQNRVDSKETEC

In the case of `CCCCCCCCCCCCCC(=O)O[C@@H]1[C@@H](C)[C@]2(O)C3C=C(C)C(=O)[C@@]3(O)CC(CO)=C[C@H]2[C@@H]2C(C)(C)[C@]12OC(C)=O.COc1ccc([P@](=O)(OCC(F)(F)F)N2Cc3ccccc3C[C@@H]2C(=O)NO)cc1` (stereo partly specified), the Epidermal thickness in the experiment listed under Mus musculus [1] was less than 30.5. This compound displayed a Decrease in the experiment filed under Mus musculus [2] of 81.3%.
For the compound `CCCCCCCCCCCCCC(=O)O[C@@H]1[C@@H](C)[C@@]2(O)[C@@H](C=C(CO)C[C@]3(O)C(=O)C(C)=C[C@@H]23)[C@@H]2C(C)(C)[C@]12OC(C)=O` [PHORBOL MYRISTATE ACETATE], the Epidermal thickness in the experiment listed under Mus musculus [1] came to 62.2.
In the case of `CCO[P@](=O)(c1ccc(OC)cc1)N1Cc2ccccc2C[C@@H]1C(=O)NO`, in experiment [3], the IC50 is greater than 10000 nM. For the same compound, in experiment [4], the Ki was greater than 800 nM.
Turning to `CCO[P@@](=O)(c1ccc(OC)cc1)N1Cc2ccccc2C[C@@H]1C(=O)NO`, the results for the IC50 (in experiment [3]; against Amphiregulin) were 230 nM and 350 nM, respectively. Further, the Stability in the experiment filed under Homo sapiens came to 100%. Besides, the Ki came to 5.2 nM on Stromelysin-1, 5.05 nM in experiment [4] and 4.59 nM at Interstitial collagenase.
Take `COc1ccc(P(=O)(OC)N2Cc3ccccc3CC2C(=O)NO)cc1` (stereo unspecified): the IC50 in experiment [3] was less than 1000 nM.
In the experiment filed under Mus musculus [1], `CCCCCCCCCCCCCC(=O)O[C@@H]1[C@@H](C)[C@]2(O)C3C=C(C)C(=O)[C@@]3(O)CC(CO)=C[C@H]2[C@@H]2C(C)(C)[C@]12OC(C)=O.COc1ccc([P@](=O)(OCC(F)F)N2Cc3ccccc3C[C@@H]2C(=O)NO)cc1` (stereo partly specified) yielded an Epidermal thickness of less than 39.7. In addition, in the experiment filed under Mus musculus [2], the Decrease came out at 57.7%.
Compound `CCCCCCCCCCCCCC(=O)O[C@@H]1[C@@H](C)[C@]2(O)C3C=C(C)C(=O)[C@@]3(O)CC(CO)=C[C@H]2[C@@H]2C(C)(C)[C@]12OC(C)=O.CCO[P@@](=O)(c1ccc(OC)cc1)N1Cc2ccccc2C[C@@H]1C(=O)NO` (stereo partly specified) gave an Epidermal thickness in the experiment listed under Mus musculus [1] of less than 44.4. The Decrease in the experiment filed under Mus musculus [2] is recorded as 45.6%.
`COc1ccc([P@](=O)(OCC(F)F)N2Cc3ccccc3C[C@@H]2C(=O)NO)cc1`: the IC50 in experiment [3] stood at 510 nM; at Amphiregulin, 1470 nM. Besides, the Ki on Stromelysin-1 was 6.67 nM; in experiment [4], 4.97 nM; on Interstitial collagenase, 6 nM.
For the compound `COc1ccc([P@](=O)(OCCF)N2Cc3ccccc3C[C@@H]2C(=O)NO)cc1`, the IC50 in experiment [3] worked out at 180 nM; on Amphiregulin it was 470 nM. For the same compound, the Stability in the experiment filed under Homo sapiens was found to be 96%. Further, the figures for the Ki (on Stromelysin-1; in experiment [4]; at Interstitial collagenase) were 9.07 nM, 10.5 nM and 10.5 nM, respectively.
In the case of `COc1ccc([P@](=O)(OCC(F)(F)F)N2Cc3ccccc3C[C@@H]2C(=O)NO)cc1`, the IC50 in experiment [3] turned out to be 730 nM; against Amphiregulin it was 950 nM. In addition, the inhibition constant Ki on Stromelysin-1 amounted to 6.75 nM; in experiment [4], 3.68 nM; on Interstitial collagenase it was 6.57 nM.
Consider `COc1ccc([P@](=O)(OCCC(F)(F)F)N2Cc3ccccc3C[C@@H]2C(=O)NO)cc1`, for which the IC50 in experiment [3] turned out to be 310 nM; against Amphiregulin, 970 nM. In addition, the Stability in the experiment listed under Homo sapiens was found to be 99%. Further, the Ki on Stromelysin-1 came to 3.33 nM; in experiment [4], 4.46 nM; at Interstitial collagenase it was 2.21 nM.
As for `O=C(NO)C1Cc2ccccc2CN1` (stereo unspecified), in experiment [3], the half-maximal inhibitory concentration (IC50) was greater than 10000 nM. Also, the Ki at Stromelysin-1 was greater than 650 nM; in experiment [4] it was greater than 800 nM.
